# Test results published in patent US20080064727A1, “Crystalline forms of tiagabine hydrochloride” (Cephalon, Inc., priority 2006, published 2008).
# Legend:
# Type in all cases: physicochemical
# [1] = Solid-form stability on storage, resulting form by XRPD analysis
# Protocol: (§1) X-ray powder diffraction (XRPD) analyses were performed using the following instruments & methods:
# (§2) A. Shimadzu XRD-6000 X-ray powder diffractometer using Cu Kα radiation. The instrument was equipped with a long fine focus X-ray tube. The tube voltage and amperage were set to 40 kV and 40 mA, respectively. The divergence and scattering slits were set at 1° and the receiving slit was set at 0.15 mm. Diffracted radiation was detected by a NaI scintillation detector. A θ-2θ continuous scan at 3°/min (0.4 sec/0.02° step) from 2.5 to 40° 2θ was used. A silicon standard was analyzed to check the instrument alignment. Data were collected and analyzed using XRD-6000 v. 4.1. Samples were prepared for analysis by placing them in a sample holder.
# (§3) B. Inel XRG-3000 diffractometer, equipped with a CPS (Curved Position Sensitive) detector with a 2 Orange of 120°. Real time data were collected using Cu—Kα radiation starting at approximately 4° 2θ at a resolution of 0.03° 2θ. The tube voltage and amperage were set to 40 kV and 30 mA, respectively. The monochromator slit was set at 5 mm by 80 μm or 160 μm. […] Samples were prepared for analysis by packing them into thin-walled glass capillaries. Each capillary was mounted onto a goniometer head that is motorized to permit spinning of the capillary during data acquisition. The acquisition time was between 5 to 10 min. Instrument calibration was performed using a silicon reference standard.
# (§4) D. Bruker D-8 Discover diffractometer and Bruker's General Area Diffraction Detection System (GADDS, v. 4.1.20). An incident beam of Cu—Kα radiation was produced using a fine-focus tube (40 kV, 40 mA), a Gobel mirror, and a 0.5 mm double-pinhole collimator. The samples were positioned for analysis by securing the well plate to a translation stage and moving each sample to intersect the incident beam. Alternatively, the sample was packed between 3-micron thick films to form a portable disc-shaped specimen, and the specimen was loaded in a holder secured to a translation stage. The samples were analyzed using a transmission geometry. The incident beam was scanned and rastered over the sample during the analysis to optimize orientation statistics. A beam-stop was used to minimize air scatter from the incident beam at low angles. Diffraction patterns were collected using a Hi-Star area detector located 15 cm from the sample and processed using GADDS. The intensity in the GADDS image of the diffraction pattern was integrated using a step size of 0.04° 2θ. The integrated patterns display diffraction intensity as a function of 2θ. Prior to the analysis a silicon standard was analyzed to verify the Si 111 peak position.
# E. Peak Picking Methods. Any XRPD files generated from Inel or Bruker XRPD instruments were converted to Shimadzu .raw file using File Monkey version 3.0.4. The Shimadzu .raw file was processed by the Shimadzu XRD-6000 version 4.1 software to automatically find peak positions. The “peak position” means the maximum intensity of a peaked intensity profile. The following processes were used with the Shimadzu XRD-6000 “Basic Process” version 2.6 algorithm: • Smoothing was done on all patterns. • The background was subtracted to find the net, relative intensity of the peaks. • A peak from Cu K alpha2 (1.5444 Å) wavelength was subtracted from the peak generated by Cu K alpha1 (1.5406 Å) peak at 50% intensity for all patterns. Differential Scanning Calorimetry
# [2] = Solid-form stability on heating, resulting form by XRPD analysis; settings: heated five (5) minutes at about 160° C. in an argon atmosphere, lyophilized sample (Preparation Method 3), hydrochloride
# Protocol: as §1, §2, §3
# C. Shimadzu XRD-6000 X-ray powder diffractometer equipped with an Anton Paar HTK 1200 high temperature stage (Variable-temperature XRPD (VT-XRPD)). The sample was packed in a ceramic holder and analyzed form 2.5 to 40° 2θ at 3°/min (0.4 sec/0.02° step). The heating rate was 10° C./min. A silicon standard was analyzed to check the instrument alignment. Temperature calibration was performed using vanillin and sulfapyridine USP melting point standards. Data were collected and analyzed using XPD-6000 v.4.1. The system was kept under a purge of nitrogen during the analysis.
# as §4
# E. Peak Picking Methods. Any XRPD files generated from Inel or Bruker XRPD instruments were converted to Shimadzu .raw file using File Monkey version 3.0.4. The Shimadzu .raw file was processed by the Shimadzu XRD-6000 version 4.1 software to automatically find peak positions. The “peak position” means the maximum intensity of a peaked intensity profile. The following processes were used with the Shimadzu XRD-6000 “Basic Process” version 2.6 algorithm: • Smoothing was done on all patterns. • The background was subtracted to find the net, relative intensity of the peaks. • A peak from Cu K alpha2 (1.5444 Å) wavelength was subtracted from the peak generated by Cu K alpha1 (1.5406 Å) peak at 50% intensity for all patterns. […]
# [3] = Moisture sorption/desorption (VTI SGA-100 moisture balance)
# Protocol: Moisture sorption/desorption data were collected on a VTI SGA-100 moisture balance system. For sorption isotherms, a sorption range of 5 to 95% relative humidity (RH) and a desorption range of 95 to 5% RH in 10% RH increments were used for analysis. The samples were not dried prior to analysis. Equilibrium criteria used for analysis were less than 0.0100% weight change in 5 minutes with a maximum equilibration time of 3 hours if the weight criterion was not met. Data were not corrected for the initial moisture content of the samples.
# [4] = Approximate solubility in various solvents by aliquot addition, visual dissolution; settings: thermodynamic from solid, amorphous obtained by Preparation Method 3
# Protocol: Dissolution was determined visually. The actual solubilities may be higher than reported due to the use of excess solvent (e.g., because of slow dissolution rates).
smiles,measurement,setting,value
"Cc1ccsc1C(=CCCN1CCC[C@@H](C(=O)O)C1)c1sccc1C.Cl [tiagabine HCl amorphous, tiagabine hydrochloride]",Time stable when stored,"[1]; about 5° C., 11% relative humidity",at least 5 days
same,Time stable when stored,"[1]; about 5° C., 43% relative humidity",≥ 8 days
same,Time stable when stored,"[1]; room temperature, 33% relative humidity",at least 22 days
same,Time stable when stored,"[1]; room temperature, 58% relative humidity",at least 22 days
same,Form indicated by XRPD analysis after storage,"[1]; stored 5 days, about 5° C., about 11% relative humidity, lyophilized sample (Preparation Method 3)",tiagabine HCl amorphous
same,Form indicated by XRPD analysis after storage,"[1]; stored 8 days, about 5° C., about 43% relative humidity, lyophilized sample (Preparation Method 3)",tiagabine HCl amorphous
same,Form indicated by XRPD analysis after storage,"[1]; stored 22 days, room temperature, about 33% relative humidity, crash-cooled sample (Preparation Method 1)",tiagabine HCl amorphous
same,Form indicated by XRPD analysis after storage,"[1]; stored 22 days, room temperature, about 58% relative humidity, crash-cooled sample (Preparation Method 1)",tiagabine HCl amorphous
same,Form indicated by XRPD analysis after storage,"[1]; stored 22 days, room temperature, about 75% relative humidity, crash-cooled sample (Preparation Method 1), hydrochloride",a mixture of tiagabine hydrochloride Forms A and B
same,Form indicated by XRPD analysis after storage,"[1]; stored 22 days, room temperature, about 75% relative humidity, crash-cooled sample (Preparation Method 1), listed as Tiagabine hydrochloride amorphous, hydrochloride",a mixture of Forms A and B
same,Form indicated by XRPD analysis after storage,"[1]; stored 22 days, room temperature, about 84% relative humidity, crash-cooled sample (Preparation Method 1), hydrochloride",a mixture of tiagabine hydrochloride Forms A and B
same,Form indicated by XRPD analysis after storage,"[1]; stored 22 days, room temperature, about 84% relative humidity, crash-cooled sample (Preparation Method 1), listed as Tiagabine hydrochloride amorphous, hydrochloride",a mixture of Forms A and B
same,Form indicated by XRPD analysis after heating,[2],tiagabine HCl Form B
same,Form indicated by XRPD analysis after heating,[2]; listed as Tiagabine hydrochloride amorphous,tiagabine hydrochloride anhydrous
same,Weight gain upon sorption,[3]; at 95% relative humidity (RH),12.1%
same,Weight loss upon desorption,[3]; from 95% to 5% RH,9.5%
same,Forms present by XRPD analysis after moisture sorption/desorption,[3]; sample after sorption 5 to 95% RH and desorption 95 to 5% RH,tiagabine HCl Forms A and B
same,solubility,"[4]; aqueous with cosolvent or surfactant or cyclodextrin, solvent: 2-propanol/water (1:1)",> 129 mg/mL
same,solubility,"[4]; organic solvent or mixture, solvent: 1,4 dioxane/water (3:1)",> 359 mg/mL
same,solubility,"[4]; organic solvent or mixture, solvent: Acetonitrile",< 26 mg/mL
same,solubility,"[4]; organic solvent or mixture, solvent: Benzonitrile",> 448 mg/mL
same,solubility,"[4]; organic solvent or mixture, solvent: Chloroform",> 582 mg/mL
same,solubility,"[4]; organic solvent or mixture, solvent: Dichloromethane",< 34 mg/mL
same,solubility,"[4]; organic solvent or mixture, solvent: Dioxane",> 542 mg/mL
same,solubility,"[4]; organic solvent or mixture, solvent: Tetrahydrofuran",> 562 mg/mL
same,solubility,"[4]; organic solvent or mixture, solvent: Toluene",< 43 mg/mL
same,solubility,"[4]; organic solvent or mixture, solvent: Trifluoroethanol",> 713 mg/mL
same,solubility,"[4]; organic solvent or mixture, solvent: ethanol/water (10:1)",> 400 mg/mL
same,solubility,"[4]; organic solvent or mixture, solvent: ethyl acetate (wet)",> 1190 mg/mL
same,solubility,"[4]; organic solvent or mixture, solvent: ethyl acetate",< 24 mg/mL
same,solubility,"[4]; organic solvent or mixture, solvent: methyl ethyl ketone",> 546 mg/mL
same,solubility,"[4]; organic solvent or mixture, solvent: methyl-tert-butyl ether",< 14 mg/mL
same,solubility,"[4]; water, solvent: Water",> 490 mg/mL
